Assay results from patent US8133471B2, “CLK-peptide and SLK-peptide” (New York University, priority 2003, dated 2012).

Test system: bFGF-induced angiogenesis in chick chorioallantoic membrane (CAM)
Assay: bFGF-induced angiogenesis in the chick CAM model
Assay type: in vivo
Description: FIG. 3A, FIG. 3B, and FIG. 3C depict a chick chorioallantoic membrane (CAM) without bFGF-induced angiogenesis, a CAM following bFGF-induced angiogenesis, and a CAM treated with CLK-peptide after bFGF-induced angiogenesis, respectively.
FIG. 4 is a chart which illustrates quantification of CAM angiogenic blood vessels following bFGF-induced angiogenesis without subsequent CLK-peptide treatment and CAM angiogenic blood vessels following bFGF-induced angiogenesis with subsequent CLK-peptide treatment.
Angiogenesis was induced within the chorioallantoic membrane (CAM) of 10-day old chick embryos with bFGF. Twenty-four hours later, 8-10 of the embryos were treated with a single intravenous injection of CLK-peptide (100 ug/embryo). At the end of a 3-day incubation period, the CAM tissues were removed for analysis. […] (FIGS. 3 (a),(b),(c)) The single injection of CLK-peptide inhibited bFGF by greater than 95%. […] Eight to ten chick embryos were tested in each of the two groups, and the experiment was repeated three times for a total of 24-30 chick embryos tested.

Substance: H-CLKQNGGNFSLG-OH [CLK-peptide, NH2-C-L-K-Q-N-G-G-N-F-S-L-G-COOH]
- adverse effects following injection (chick embryos, 100 ug/embryo intravenous): No adverse effects
- number of branching vessels within the area of the filter disc (single intravenous injection 100 ug/embryo): dramatic reduction
- inhibition of bFGF (induced angiogenesis) (single intravenous injection 100 ug/embryo, 3-day incubation): greater than 95%
